Data on four compounds can be found in patent publication US20230017597A1, “8-SUBSTITUTED STYRYL XANTHINE DERIVATIVES AND USES THEREOF” (SUNSHINE LAKE PHARMA CO., LTD., priority 2019, published 2023).

In data set [1] the target is T1, human adenosine A2A receptor (Homo sapiens, UniProt P29274).
T1 construct: expressed in transfected cells; host or cells: HEK-293
Nature of the data set: Antagonizing effect on human adenosine A2A receptor (NECA-stimulated cAMP, TR-FRET, HEK-293 cells). It is filed as cell-based. The note with it: inhibition of cAMP produced by NECA (3 nM), HEK-293 cells expressing human recombinant A2A receptor. As to the method:
The experimental system uses human recombinant adenosine A2A receptor, which is stably expressed in HEK-293 cell line. HEK-293 cells were inoculated into culture plate at a density of 1.25×10^5 cells/mL. The medium was changed by modified HBSS solution with pH 7.4, different concentrations of test compounds ([…], 1 μM, […], 10 nM, 1 nM, 0.1 nM) and solvents (PBS with 0.1% DMSO) were added, and the plate was incubated at 37° C. for 10 min. cAMP (cyclic adenosine monophosphate) concentration in culture medium was detected by TR-FRET method. NECA was used as a positive control in this experiment, (1) test compounds alone were used to stimulate cells to produce a certain amount of cAMP, and then NECA (0.1 μM) alone was used to stimulate cells to produce a certain amount of cAMP. A test compound is considered to have agonistic activity on adenosine A2A receptor if the test compound alone stimulates cells to produce cAMP more than 50% of the amount of cAMP produced by NECA (0.1 μM) alone. (2) All cells were first incubated with test compounds and then stimulated with NECA (3 nM). In addition, NECA (3 nM) alone was used to stimulate cells to produce a certain amount of cAMP. […] IC50 was calculated using MathIQ™ (ID Business Solutions Ltd., UK) through nonlinear, least squares regression equation analysis.

Data set [2] can be described thus: Pharmacokinetic evaluation in beagles after intravenous or gavage administration. The format is in vivo. The settings on record: for AUC(0-inf) / AUC(0-t) / Cmax / MRT inf / Tmax / clearance / half-life / Vd: beagle, dog, plasma; for Vd: read-out: Vss; for F: gavage 2.5 mg/kg vs intravenous 0.5 mg/kg. On the procedure:
The test animals are mice and/or dogs.
(§1) The LC-MS/MS system for analysis includes the Agilent 1200 series vacuum degasser, a quaternary pump, an orifice plate sampler, a thermostatted column oven, and an API4000Qtrap triple quadrupole mass spectrometer with an electrospray ionization source (ESI).
A waters xbridge C18 UPLC, 2.1×50 mm, […] column was used for analysis and 0.5 μL of sample was injected. Analytical conditions: mobile phase was H2O+2 mM HCOONH4 (ammonium formate)+0.1% FA (formic acid) (mobile phase A) and MeOH (methanol)+2 mM HCOONH4 (ammonium formate)+0.1% FA (formic acid) (mobile phase B). The flow rate was 0.7 mL/min.
The experiment was divided into two groups: one was administered by intravenous injection, and the other was administered by intragastric administration. The compound of the present invention was administered to test animals in the form of 10% DMA+60% PEG400+30% saline solution. […] Each blood sample was centrifuged at 3,000 rpm or 4,000 rpm for 10 minutes. The plasma solutions were collected and anticoagulant was EDTA-K2. The plasma solutions were then kept at −20° C. or −70° C. […]
10 μL of plasma was taken, 120 μL of IS working solution was added to the plasma, and the plasma was vortexed for 2 min. The mixed solution was then centrifuged at 12,000 rpm for 2 min. 80 μL of the supernatant was taken, 140 μL of MeOH/H2O (v/v=1/1) was added, and the solution was vortexed for 2 minutes, then 1.0 μL was taken for injection into the LC-MS/MS system. LC-MS/MS method was used to detect the concentration of target compounds, and non-compartment model was used to calculate pharmacokinetic parameters.

Data set [3] is described as follows: Pharmacokinetic evaluation in rats after intravenous or gavage administration. The format is in vivo, SD rats. The note with it: for AUC(0-inf) / AUC(0-t) / Cmax / MRT inf / Tmax / clearance / half-life / Vd: SD, rat, plasma; for Vd: read-out: Vss; for F: gavage 5 mg/kg vs intravenous 1 mg/kg. As to the method:
as §1
Waters ACQUITY UPLC CSH C18, 2.1×50 mm, 1.7 μm column was used for analysis, and 0.8 μL of sample was injected. Analytical conditions: mobile phase was H2O+2 mM HCOONH4 (ammonium formate)+0.1% FA (formic acid) (mobile phase A) and MeOH (methanol)+2 mM HCOONH4 (ammonium formate)+0.1% FA (formic acid) (mobile phase B). Flow rate was 0.7 mL/min.
The experiment was divided into two groups: one was administered by intravenous injection, and the other was administered by intragastric administration. The compound of the present invention was administered to a test animal (overnight fast for 12 hours) in the form of 10% DMA (heating)+60% PEG400+30% saline solution. For the group of intravenous administration, the administration dose was 1 mg/kg, and vein blood samples (0.3 mL) were collected at the time points of 0.083, 0.25, 0.5, 1.0, 2.0, 5.0, 7.0 and 24 h after administration. EDTA-K2 as anticoagulant was added into the blood vessel. The plasma solutions were collected by centrifuging each blood sample at 3,000 rpm or 4,000 rpm for 10 minutes and kept at −20° C. or −70° C. For the group of intragastric administration, the administration dose was 5 mg/kg, and vein blood samples (0.3 mL) were collected at the time points of 0.25, 0.5, 1.0, 2.0, 5.0, 7.0 and 24 h after administration. EDTA-K2 as anticoagulant was added into the blood vessel. The plasma solutions were collected by centrifuging each blood sample at 3,000 rpm or 4,000 rpm for 10 minutes and kept at −20° C. or −70° C.
20 μL of plasma was taken, 120 μL of IS working solution was added to the plasma, and the plasma was vortexed for 2 min. The mixed solution was then centrifuged at 12,000 rpm for 2 min. 100 μL of the supernatant was taken, 110 μL of MeOH/H2O (v/v=1/1) was added, and the solution was vortexed for 2 minutes, then 5 μL was taken for injection into the LC-MS/MS system. LC-MS/MS method was used to detect the concentration of target compounds, and non-compartment model was used to calculate pharmacokinetic parameters.

[4] abbreviates: intravenous injection, 0.5 mg/kg.

The IC50 is the concentration at which inhibition is half-maximal. As usually defined, the AUC(0-inf) is the area under the concentration-time curve extrapolated to infinity. Higher therefore signals more exposure. A word on the AUC(0-t): it is exposure summed from dosing to a finite time, without extrapolation to infinity. As usually defined, the Cmax is the highest concentration seen after dosing. One may read the MRT inf as the average time that molecules of a dose stay in the body. In general, Tmax refers to the time at which the peak concentration occurs. In general, half-life refers to the time in which the quantity being followed falls by half.

T1 sequence (P29274 whole entry): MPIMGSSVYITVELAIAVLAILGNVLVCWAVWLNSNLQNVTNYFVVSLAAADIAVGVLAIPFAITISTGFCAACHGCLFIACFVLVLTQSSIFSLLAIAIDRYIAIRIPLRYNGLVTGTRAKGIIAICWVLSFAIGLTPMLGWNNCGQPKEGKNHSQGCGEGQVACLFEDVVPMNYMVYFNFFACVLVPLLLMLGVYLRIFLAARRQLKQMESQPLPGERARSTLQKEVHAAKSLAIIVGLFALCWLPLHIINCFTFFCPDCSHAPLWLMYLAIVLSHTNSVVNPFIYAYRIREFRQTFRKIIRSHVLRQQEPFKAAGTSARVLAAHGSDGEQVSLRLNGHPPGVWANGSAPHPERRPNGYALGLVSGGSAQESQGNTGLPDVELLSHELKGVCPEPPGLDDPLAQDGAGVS

As for `CCN1CCC(Oc2ccc(/C=C/c3nc4c(c(=O)n(CC)c(=O)n4CC)n3C)cc2)CC1` [Example 3, (E)-1,3-diethyl-7-methyl-8-(4-((1-ethylpiperidin-4-yl)oxy)styryl)-1H-purine-2,6(3H,7H)-dione], the IC50 in data set [1] came out at 1480 nM.
Consider `CCn1c(=O)c2c(nc(/C=C/c3ccc(OC4CCN(S(C)(=O)=O)CC4)cc3)n2C)n(CC)c1=O` [Example 8, (E)-1,3-diethyl-7-methyl-8-(4-((1-(methylsulfonyl)piperidin-4-yl)oxy)styryl)-1H-purine-2,6(3H, 7H)-dione], for which the IC50 in data set [1] was determined as 750 nM. Further, in data set [2] (setting [4]), the AUC(0-inf) is 6310 ng·h/mL, the AUC(0-t) came out at 4990 ng·h/mL, the Cmax stood at 775 ng/mL and the MRT inf was found to be 14.4 h. In data set [2] (setting [4]), the Tmax worked out at 0.083 h, the clearance turned out to be 1.32 mL/min/kg, the half-life was 9.43 h and the Vd was 1.14 L/kg. In addition, in data set [2] (po, gavage, 2.5 mg/kg), the AUC(0-inf) came out at 31800 ng·h/mL, the AUC(0-t) stood at 22700 ng·h/mL, the concentration peaked (Cmax) at 1720 ng/mL and the MRT inf is 18.1 h. In data set [2] (po, gavage, 2.5 mg/kg), the Tmax is 0.667 h and the half-life was 11.5 h. The compound further yielded a F in data set [2] of 91.1%. In data set [3] (intravenous injection, 1 mg/kg), this compound yielded an AUC(0-inf) of 1830 ng·h/mL, an AUC(0-t) of 1810 ng·h/mL, a Cmax of 817 ng/mL and a mean residence time MRT inf of 3.1 h. Also, in data set [3] (intravenous injection, 1 mg/kg), the Tmax is 0.083 h, the clearance is 9.1 mL/min/kg, the half-life was 4.64 h and the Vd came out at 1.69 L/kg. Also, in data set [3] (po, gavage, 5 mg/kg), the AUC(0-inf) was 11900 ng·h/mL, the exposure AUC(0-t) was found to be 11900 ng·h/mL, the Cmax stood at 2030 ng/mL and the MRT inf turned out to be 4.07 h. Moreover, in data set [3] (po, gavage, 5 mg/kg), the Tmax was 1.67 h and the half-life was 2.8 h. Further, the F in data set [3] worked out at 131.5%.
For the compound `CCn1c(=O)c2c(nc(/C=C/c3ccc(OC4CCNCC4)cc3)n2C)n(CC)c1=O` [Example 1, (E)-1,3-diethyl-7-methyl-8-(4-(piperidin-4-yloxy)styryl)-1H-purine-2,6(3H,7H)-dione], the IC50 in data set [1] was found to be 550 nM.
Turning to `CCn1c(=O)c2c(nc(/C=C/c3ccc(OC4CCN(C(C)=O)CC4)cc3)n2C)n(CC)c1=O` [Example 6, (E)-8-(4-((1-acetylpiperidin-4-yl)oxy)styryl)-1,3-diethyl-7-methyl-1H-purine-2,6 (3H,7H)-dione], the IC50 in data set [1] was determined as 350 nM. In data set [2] (setting [4]), the AUC(0-inf) was 6110 ng·h/mL, the AUC(0-t) was determined as 5830 ng·h/mL, the peak level (Cmax) was 634 ng/mL and the MRT inf came to 7.37 h. For the same compound, in data set [2] (setting [4]), the Tmax turned out to be 0.25 h, the clearance is 1.36 mL/min/kg, the half-life is 5.81 h and the Vd stood at 0.604 L/kg. Also, in data set [2] (po, gavage, 2.5 mg/kg), the AUC(0-inf) was determined as 56500 ng·h/mL, the AUC(0-t) worked out at 47200 ng·h/mL, the highest concentration (Cmax) is 3320 ng/mL and the MRT inf stood at 12.5 h. Besides, in data set [2] (po, gavage, 2.5 mg/kg), the Tmax turned out to be 2.67 h and the half-life was 9.11 h. Besides, the F in data set [2] is given as 170.5%. In data set [3] (intravenous injection, 1 mg/kg), this compound showed an AUC(0-inf) of 6290 ng·h/mL, an AUC(0-t) of 6230 ng·h/mL, a Cmax of 1610 ng/mL and an MRT inf of 4.37 h. In data set [3] (intravenous injection, 1 mg/kg), the Tmax is 0.083 h, the clearance is 2.65 mL/min/kg, the half-life is 3.82 h and the Vd amounted to 0.696 L/kg. In data set [3] (po, gavage, 5 mg/kg), this compound gave an AUC(0-inf) of 40400 ng·h/mL, an AUC(0-t) of 36900 ng·h/mL, a Cmax of 2930 ng/mL and an MRT inf of 9.22 h. In data set [3] (po, gavage, 5 mg/kg), the Tmax was 1.5 h and the half-life was 6.96 h. The same compound showed a F in data set [3] of 118.4%.
